In EP0562849A2, “Steroid derivatives” (priority 1992, dated 1993):
Values joined by “and” are separate entries in the source; they are usually repeats but may differ in a detail not shown here. Identical values can stand only once. Like-named read-outs stand apart in the source and are kept apart here.

Test system: human LDL receptor promoter
Test: in vitro Luciferase Activity Test (LDL receptor promoter-luciferase reporter in recombinant CHO cells)
Type: cell-based
Parameters: MED: unit not given here
Details: for Emax: Homo sapiens, CHO, read-out: MA%; for Emax / MA%: maximum activity (%) over control; for MED: minimum effective dose (molar concentration, unit not given), 24 hr, assay medium with 0.5 µg/ml 25-hydroxycholesterol; for RED: relative effective dose compared to compound of Example 4, below one = more active
Protocol: A 1546 base pair sequence of the human LDL receptor promoter was amplified using the polymerase chain reaction. A reaction mixture containing 20 pMoles each of the synthetic oligonucleotides 5'-[…]-3' (Seq. I.D. No: 1) and 5'-AAG-[…]-3', (Seq. I.D. No:2) 1 µg human genomic DNA purified from the adenocarcinoma cell line P3UCLA, 200 µM each of dATP, dGTP, dCTP, and TTP, 2.5 units of Taq DNA polymerase, 10mM Tris-HCI pH 8.3, 50 mM KCI, […], 0.1% gelatin in a final volume of 100 µl was subjected to 30 cycles of 15 sec at 96°C, 30 sec at 55°C, and 1 min at 72°C. The material was subject to gel electrophoresis on a 1% agarose gel and the 1546 base pair band was isolated and restriction enzyme digested with Hind III and Nde I. This fragment was ligated into the plasmid pSP72 (ProMega Biotech), which had previously been restriction enzyme nuclease digested with Hind III and Nde I. The resulting vector, pNLDLRP, was restriction endonulease digested with Ndel and Hind III and the material was again run on a 1% agarose gel to reisolate the 1546 bp LDL receptor sequence.
Plasmid vector PSv2 was constructed by digesting plasmid pSv2-globin with Hind III and Bgl II then ligating an Nrul-Xhol linker into the vector. Plasmid pSv2 globin is disclosed in U.S. Patent No. 4,775,624, the entire teaching of which is herein incorporated by reference. The linker contained the following sequences: [formula] (Seq. I.D. No: 3), and [formula] ' (Seq. I.D. No:4).
The resulting vector was designated pSv2-H NXB because it contained a […], an Nrul site, an Xhol site and a Bgl site. The Hind III-Bgl II fragment of plasmid pAlc4(NRRL B-18783), which contains the firefly luciferase gene, was then ligated into the Hin III-Bgl site of plasmid pSv2-HNXB. A neomycin resistance-conforming gene was then ligated into the Bam HI site of the resultant plasmid to form plasmid pSv2.
A 1546 base pair fragment was isolated and cloned into a Ndel and Hind III (partial) restriction digested vector pSv2 containing the firefly luciferase reporter gene and a gene for neomycin resistance. The resulting vector, pLDL-Luc1 Neo-10, contains the human LDL receptor promoter driving expression of the firefly luciferase gene, a gene coding for neomycin resistance, ampicillin resistant marker and an origin of replication.
Plasmid pLDL-Luc 1 Neo-10 was used to stably transfect Chinese Hamster Ovary cells using a Lipofection Reagent kit and procedure from Gibco BRL Research Products Division Life Technologies Inc. Transformants were selected by picking individual colonies grown in Dulbecco's modified Eagle's medium supplimented with 10% fetal bovine serum and containing 500 µg per ml […]. […] Clone S27/B30 was used for subsequent screening.
In developing a cell based screen it is important to have a negative control. The viral SV40 promoter is ideal for this purpose in that it has a number of SP1 elements that enhance gene transcription. These elements are not under the control of end product repression; but they do have a high degree of sequence homology with the 16 base pair long sterol response element found in the LDL receptor promoter. The SV40 promoter should therefore be a sensitive mechanism to screen out agents that induce nonspecific transcription.
Chinese Hamster Ovary cells were stably cotransfected with a vector pSV2AL-A 5' containing the SV40 promoter driving expression of the firefly luciferase gene and a second vector pSV2 NeoBam containing a neomycin resistant marker. Transfections were carried out using the Lipofectin Reagent kit and procedure from Gibco BRL Research Products Division Life Technologies Inc. Transformants were selected by picking individual colonies grown in Dulbecco's modified Eagle's medium supplemented with 10% fetal bovine serum and containing 500 µg per ml of geneticin. Individual clones were selected, lysed and assayed for luciferase production. […]

[1] = NA is not active, 30% luciferase activity cutoff point (footnote 1)
[2] = tests using 30% luciferase activity cutoff point (footnote 1)
[3] = 30% luciferase activity cutoff point (footnote 1)
[4] = 15% luciferase activity cutoff point (footnote 2)
[5] = tests using 15% luciferase activity cutoff point (footnote 2)

SMILES	Emax [1]	MED [2]	Emax [4]	MED [5]	RED [4]	MA% [1]	further results
C/C=C/C[C@@H]1C(=O)CC[C@]2(C)[C@H]3CC[C@]4(C)[C@@H]([C@H](C)CCCC(C)(C)O)CC[C@H]4[C@@H]3CC[C@@H]12 [Example 3, [4a(E),5a]-4-(2-butenyl)-25-hydroxycholestan-3-one]	144%	2.2	–	–	–	–	RED [3]: 0.97
CCCC[C@@H]1[C@H](O)CC[C@@]2(C)[C@H]1CC[C@@H]1[C@@H]2CC[C@]2(C)[C@@H]([C@H](C)CCCC(C)C)CC[C@@H]12 [Example 7, [4a,5a]-4-butylcholestan-3a-ol]	–	–	46%	–	–	–	MA% [4]: 30%
C/C=C/C[C@@H]1[C@H](N)CC[C@@]2(C)[C@H]1CC[C@@H]1[C@@H]2CC[C@]2(C)[C@@H]([C@H](C)CCCC(C)C)CC[C@@H]12 [Example 8, [4a(E), 5a]-4-(2-butenyl)-3a-aminocholestone]	51%	5.6	–	–	–	–	RED [3]: 2.50
C/C=C/C[C@@H]1[C@H](NC(C)=O)CC[C@@]2(C)[C@H]1CC[C@@H]1[C@@H]2CC[C@]2(C)[C@@H]([C@H](C)CCCC(C)C)CC[C@@H]12 [Example 9, [4a(E),5a]-4-(2-butenyl)-3a acetamidocholestane]	60%	2.0	–	–	–	–	RED [3]: 0.88
C/C=C/C[C@@H]1[C@@H](NC(C)=O)CC[C@@]2(C)[C@H]1CC[C@@H]1[C@@H]2CC[C@]2(C)[C@@H]([C@H](C)CCCC(C)C)CC[C@@H]12 [Example 10, [4a(E),5a]-4-(2-butenyl)-3b acetamidocholestane]	55%	10.3	–	–	–	–	RED [3]: 4.5
CC(C)CCC[C@@H](C)[C@H]1CC[C@H]2[C@@H]3CCC4[C@H](Cc5ccccc5)[C@H](O)CC[C@]4(C)[C@H]3CC[C@]12C (stereo partly drawn) [Example 22, 4a-benzylcholestan-3a-ol]	18%	–	–	–	–	–	–
CC(C)CCC[C@@H](C)[C@H]1CC[C@H]2[C@@H]3CCC4[C@H](Cc5ccc(C(F)(F)F)cc5)[C@H](O)CC[C@]4(C)[C@H]3CC[C@]12C (stereo partly drawn) [Example 26, 4a-(4-trifluoromethylbenzyl)cholestan-3a-ol]	–	–	–	9.1	–	–	MA% [4]: 59% and 34%
CC(C)CCC[C@@H](C)[C@H]1CC[C@H]2[C@@H]3CCC4[C@H](Cc5ccc(Cl)c(Cl)c5)[C@H](O)CC[C@]4(C)[C@H]3CC[C@]12C (stereo partly drawn) [Example 27, 4a-(3,4-dichlorobenzyl)cholestan-3a-ol]	–	–	32%	9.1	4.0	–	–
COC(=O)c1ccc(C[C@H]2C3CC[C@H]4[C@@H]5CC[C@H]([C@H](C)CCCC(C)C)[C@@]5(C)CC[C@@H]4[C@@]3(C)CC[C@H]2O)cc1 (stereo partly drawn) [Example 29, 4a-(4-methoxycarbonylbenzyl)cholestan-3a-ol]	–	–	37%	14	2.5	–	–
CC(C)CCC[C@@H](C)[C@H]1CC[C@H]2[C@@H]3CCC4[C@H](Cc5ccc(Cl)cc5)[C@H](O)CC[C@]4(C)[C@H]3CC[C@]12C (stereo partly drawn) [Example 31, 4a-(4-chlorobenzyl)cholestan-3a-ol]	–	–	46%	9.7	4.3	–	–
CC(C)CCC[C@@H](C)[C@H]1CC[C@H]2[C@@H]3CCC4[C@H](Cc5ccc(OCc6ccccc6)cc5)[C@H](O)CC[C@]4(C)[C@H]3CC[C@]12C (stereo partly drawn) [Example 32, 4a-(4-benzyloxybenzyl)cholestan-3a-ol]	–	–	36%	8.6	3.8	–	–
CC(C)CCC[C@@H](C)[C@H]1CC[C@H]2[C@@H]3CCC4[C@H](Cc5ccc(CO)cc5)[C@H](O)CC[C@]4(C)[C@H]3CC[C@]12C (stereo partly drawn) [Example 33, 4a-(4-hydroxymethylbenzyl)cholestan-3a-ol]	–	–	28%	9.8	4.3	–	–
CC(C)CCC[C@@H](C)[C@H]1CC[C@H]2[C@@H]3CCC4[C@H](Cc5ccc(C(=O)O)cc5)[C@H](O)CC[C@]4(C)[C@H]3CC[C@]12C (stereo partly drawn) [Example 34, 4a-(4-carboxybenzyl)cholestan-3a-ol]	–	–	38%	4.8	2.1	–	–
CC(C)CCC[C@@H](C)[C@H]1CC[C@H]2[C@@H]3CCC4=C(Cc5ccccc5)[C@H](O)CC[C@]4(C)[C@H]3CC[C@]12C [Example 38, 4-benzyl-4-cholesten-3a-ol]	–	–	–	84 and 42	7.37 and 3.7	–	MA% [4]: 33% and 58%
C=CC[C@H]1C2=CC[C@H]3[C@@H]4CC[C@H]([C@H](C)CCCC(C)C)[C@@]4(C)CC[C@@H]3[C@@]2(C)CC[C@H]1O [Example 40, 4a-(2-propenyl)-5-cholesten-3a-ol]	–	–	99%	2.3	1.0	110% and 71%	RED [3]: 0.51 and 0.52
C=CC[C@@H]1[C@H](O)CC[C@@]2(C)[C@H]1CC[C@@H]1[C@@H]2CC[C@]2(C)[C@@H]([C@H](C)CCCN(C)C)CC[C@@H]12 [Example 44, 4a-(2-propenyl)-cholan-24-N,N-dimethylamino-3a-ol]	–	–	62%	–	–	77% and 56%	MA% [4]: 78%
C[C@H](CCCN(C)C)[C@H]1CC[C@H]2[C@@H]3CC[C@@H]4C[C@H](O)CC[C@]4(C)[C@H]3C[C@H](O)[C@]12C [Example 50, 3a, 12a-dihydroxy-25-azacoprostane]	81%	6.2	–	–	–	92%	–
C[C@H](CCCN(C)C)[C@H]1CC[C@H]2[C@@H]3CC[C@@H]4C[C@H](O)CC[C@]4(C)[C@H]3CC[C@]12C [Example 51, 3a-hydroxy-25-azacoprostane]	112%	6.4	173%	1.28	1.16	–	RED [3]: 1.13
C[C@H](CCCN(C)C)[C@H]1CC[C@H]2[C@@H]3[C@H](O)C[C@@H]4C[C@H](O)CC[C@]4(C)[C@H]3CC[C@]12C [Example 52, 3a,7a-dihydroxy-25-azacoprostane]	–	–	–	–	–	121% and 85% and 136% and 86% and 84%	–
C[C@H](CCCN(C)C)[C@H]1CC[C@H]2[C@@H]3[C@H](O)C[C@@H]4C[C@H](O)CC[C@]4(C)[C@H]3C[C@H](O)[C@]12C [Example 53, 3a,7a,12a-trihydroxy-25-azacoprostane]	–	–	–	–	–	57% and 99%	–
C[C@H](CCCN(C)C)[C@H]1CC[C@H]2[C@@H]3[C@H](O)C[C@@H]4C[C@H](O)CC[C@]4(C)[C@H]3CC[C@]12C [Example 54, 3a,7a-dihydroxy-25-azacoprostane]	–	12.3	–	–	–	102% and 92%	–
C=CC[C@@H]1[C@H](O)CC[C@@]2(C)[C@H]1CC[C@@H]1[C@@H]2CC[C@]2(C)C(OCCCCCCCC)CC[C@@H]12 (stereo partly drawn) [Example 65, (3a,4a,5a)-17-(octyloxy)-4-(2-propenyl)androstan-3-ol]	–	–	–	11.3 and 22.5	–	–	–
C=CC[C@H]1C2CC[C@@H]3[C@H](CC[C@]4(C)C(OCCCc5ccccc5)CC[C@@H]34)[C@@]2(C)CC[C@H]1O (stereo partly drawn) [Example 67, (3α,4α)-17-(3-phenylpropoxy)-4-(2-propenyl)androstan-3-ol]	–	11.1 and 22.2	–	–	–	111% and 76%	MA% [4]: 116% and 118% and 74%
